# What was measured:
# [1] = Free flowability and weight gain after storage in climate chamber at 40° C. and 75% relative humidity; format: physicochemical; details: mean of three dishes; for fraction free flowing (%) Original / weight gain (%) Original: non-treated sample, stored 5 days at 40° C. and 75% relative humidity; for fraction free flowing (%) Treated / weight gain (%) Treated: sample dried 4 hours at 160° C., then stored 5 days at 40° C. and 75% relative humidity
# Experimental: The compounds obtained in Examples 1 and 3 were dried 4 hours at 160° C. Subsequently, 5 grams of each sample were distributed evenly over the bottom of a (separate) crystallization dish (diameter 10 cm) and stored for 5 days in a climate chamber at 40° C. and 75% relative humidity. As a reference also the non-treated samples, as well as a sample of Trilon M granules (Na3-MGDA solid ex BASF), were stored in the same climate chamber at the same time.
# To improve reliability of the testing, three separate dishes of all samples were stored at the same conditions.
# After five days the dishes were weighed and the gain in mass of the contents was determined.
# To estimate the amount of material that was still free flowing, the dishes were first tapped gently and then were mounted vertically to estimate the amount of material that remained sticking on the glass surface versus the amount of granular material ending on the bottom.
# [2] = Dissolution rate of granules in deionized water monitored by conductivity; format: physicochemical; details: for time needed (s) to reach 75% dissolved / time needed (s) to reach 90% dissolved / time needed (s) to reach 95% dissolved / time needed (s) to reach 100% dissolved: 1 gram granules in 75 gram deionized water, stirred, trisodium salt
# Experimental: The dissolution rate of these granules was compared to the dissolution rate of the original granules that were not heat treated:
# 1 gram of granules was added in one shot to a stirred container filled with 75 gram deionized water, equipped with a conductivity measurement probe. The conductivity of the dispersion was monitored in time. The degree of dissolution was determined by dividing the conductivity by the value finally obtained when the sample was fully dissolved yielding a stable level of conductivity.
# (The measurements were done in duplicate yielding the same result)
Compound,fraction free flowing (%) Original [1] [%],weight gain (%) Original [1] [%],fraction free flowing (%) Treated [1] [%],weight gain (%) Treated [1] [%],time needed (s) to reach 75% dissolved [2] [s],time needed (s) to reach 90% dissolved [2] [s],time needed (s) to reach 95% dissolved [2] [s],time needed (s) to reach 100% dissolved [2] [s],"dissolution compared to type I containing granules ([2]; type III containing granules versus original, not heat treated type I granules)"
"CC(C(=O)[O-])N(CC(=O)[O-])CC(=O)[O-].[Na+].[Na+].[Na+] (centres unmarked) [Example 3, Na3-MGDA]",20,17,80,29,–,–,–,–,–
"CC(C(=O)[O-])N(CC(=O)[O-])CC(=O)[O-].[Na+].[Na+].[Na+] (single isomer, unassigned) [type III, methyl glycine-N,N-diacetic acid trisodium salt]",–,–,–,–,22,36,45,90,dissolve much faster
"CC(C(=O)[O-])N(CC(=O)[O-])CC(=O)[O-].[Na+].[Na+].[Na+] (single isomer, unassigned) [type I, methyl glycine-N,N-diacetic acid trisodium salt, reference compound]",–,–,–,–,40,110,160,260,–
"CC(C(=O)[O-])N(CC(=O)[O-])CC(=O)[O-].[Na+].[Na+].[Na+] (centres unmarked) [Example 1, Na3-MGDA]",40,11,65,27,–,–,–,–,–

# Reference: patent US10829719B2, “Sodium methyl glycine-N,N-diacetic acid compound, process to prepare it and use thereof” (NOURYON CHEMICALS INTERNATIONAL B.V., priority 2017, dated 2020)
